3 compounds from patent publication US20210284691A1, “CBX8 CHROMDOMAIN INHIBITORS AND THE USES THEREOF” (Purdue Research Foundation, priority 2019, published 2021) can be followed below.

Square brackets hold non-standard residues; d marks the D form. Primed or numbered codes have the meaning given here. Ends that are not written are not given here. Peptide text beside a SMILES is read from it. * marks the point of attachment. Isoxazole3carbonyl(5-Me) = Cc1cc(C(=O)*)no1; Tyr(3-Cl) = N[C@@H](Cc1ccc(O)c(Cl)c1)C(=O)O; Lys(Et2) = CCN(CC)CCCC[C@H](N)C(=O)O; PEG4′ = not defined here; NH(propargyl) = C#CCN*

In one assay the test system is endogenous CBX proteins. As to the kind of experiment: Peptide pull-down / chemoprecipitation from HEK293T lysates. It is filed as binding, Human. The method, then: 2×10^7 HEK293T cells were seeded in a 15 cm cell culture dish overnight. Next day, media was removed and cells were washed with PBS. Cells were lysed with 5 ml Buffer A (25 mM HEPES, 5 mM KCl, 25 mM MgCl2, 0.05 mM EDTA, 10% glycerol, 0.1% NP-40, plus protease inhibitors) on ice for 15 minutes. The nuclei were pelleted and re-suspended in IP buffer (25 mM Tris, 300 mM NaCl, 1 mM EDTA, 1% NP-40, plus protease inhibitors) for 15 minutes. The sample were spun down at 15,000 rpm at 4° C. for 5 min and lysates were transferred to separate tubes. Protein concentrations were determined by Pierce 660 nm kit (Thermo Scientific). Streptavidin M-270 Dynabeads (Solulink, San Diego, Calif.) was washed three times with Pulldown Binding Buffer (50 mM Tris, 150 mM NaCl, 0.5 mM DTT). 10× of biotinylated peptides SW2_110A-B, as well as biotinylated H3K27me3 (21-44) and biotinylated H3 (21-44), were incubated with […] pre-equilibriumed beads at 4° C. for an hour. After biotin-peptide being immobilized on resin, extra unbound peptides were removed by 3× washing, and 200 μg of nuclear lysate supernatant was added to each washed and immobilized biotinylated peptide (biotin-H3, biotin-H3K27me3, SW2_110A-B). The mixture was rotated at 4° C. for 2 hours. Then, the depleted lysate was removed and the beads were washed with Pulldown Binding Buffer 3× at 4° C. […] ImageJ was employed to quantitate the protein bands.

The next assay deals with LNCaP_NED cells. As to the kind of experiment: LNCaP_NED cell proliferation, viability and morphology. The note with it: enzalutamide treatment. The class given is cell-based. The source says:
FIG. 12A). Neuroendocrine differentiation (NED) of prostate cancer induced by androgen deprivation. Representative pictures of LNCaP cells treated with normal media or charcoal-stripped serum (CSS) media for 6 days to induce neuroendocrine differentiation (LNCaP_NED). FIG. 12B). Transcriptional fold changes of KLK3/TMPRSS2/ENO2/CHGA were quantified normalized to control gene YWHAZ upon CSS media treatment for 6 or 9 days. FIG. 12C). Western blotting of CBX paralogs in LNCaP and LNCaP_NED cells generated from 14-day CSS treatment. FIG. 12D). Cell proliferation of LNCaP_NED following 5 days incubation with 2 or 10 μM SW2_152F. DMSO was used as negative control. FIG. 12E). LNCaP_NED cells were treated with 10 μM SW2_152F for 24 h-96 h. Cell morphology pictures were captured starting from 24 h. Average cell size were plotted at 24 h or 48 h for both DMSO group and compound treated group. FIG. 12F). LNCaP_NED cells were treated with 10 μM or 50 μM SW2_152F for 48 hours. Transcriptional fold change of genes (KLK3/TMPRSS2/AR/CBX2) were normalized to YWHAZ in LNCaP_NED cells with SW2_152F treatment or DMSO. FIG. 12G). LNCaP cells were treated with DMSO. LNCaP_NED cells were treated with DMSO, 10 μM GSK343 or 10 μM SW2_152F for 48 hours. Whole cell lysates were extracted for western blotting. FIG. 12H). LNCaP_NED cells were treated with DMSO or 10 μM SW2_152F for 4 hours before harvest. Binding of H3K27me3 and CBX2 at specific genomic sites (KLK3/TMPRSS2, e: enhancer, p: promoter) were evaluated using chromatin immunoprecipitation-qPCR. For all experiments in the figure, error bars represent SEM n=3 biological replicates, p-values were calculated using two-tailed Student's t-test, *=p<0.05, **=p<0.01, ***=p<0.001, ****=p<0.0001.
Cellular Activity of CBX2 Inhibitor in Neuroendocrine Differentiation of Prostate Cancer—Generation of a Prostate Cancer Neuroendocrine Differentiation (NED) System. To generate an in vitro model for NED, we cultured the androgen-sensitive prostate cancer cell line LNCaP in charcoal-stripped serum (CSS), which lacks androgens as well as other steroids. Upon treatment with CSS media, LNCaP cells adopted morphological characteristics of neuroendocrine-like cells (LNCaP_NED), which include dominant nucleus, limited cytoplasm, dendrites (FIG. 12A) and a decreased proliferation rate. To monitor transcriptional changes during androgen deprivation, we quantified the changes in expression of two NED markers (ENO2 and CHGA) and two AR target genes (KLK3 and TMPRSS2) by RT-qPCR during 15 days of androgen deprivation. […] To verify that LNCaP_NED cells become resistant to AR antagonists, we tested the effects of the AR antagonist enzalutamide (ENZA) on cell proliferation.

Another assay deals with LNCaP cells. Kind of assay: LNCaP cell proliferation. The class given is cell-based. The note with it: ENZA treatment.
For a further assay, the target named is T1, CBX8 ChD (Homo sapiens, UniProt Q9HC52).
T1 construct: CBX chromodomain constructs; host or cells: E. coli BL21 CodonPlus RIL
T1 sequence (Q9HC52 11-69 limits assumed): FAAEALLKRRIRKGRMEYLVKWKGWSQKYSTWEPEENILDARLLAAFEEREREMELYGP
As to the kind of experiment: Direct fluorescence polarization (FP) binding assay. The settings on record: from Kd values. As for the experimental part:
Bacterial growth was completed at 37° C. in LB media to OD600=2.0, followed by reducing the temperature to 16° C. over 30-60 min and induced with 1 mM IPTG for 16 h. Cells were collected by centrifugation at 6000 rpm for 20 min and resuspended in ChD binding buffer (20 mM Tris, pH 8, 150 mM NaCl, 0.01% Tween-20, 20 mM imidazole) with 1.0 mM PMSF. Bacteria pellets were stored at −80° C. until needed. Pellets were thawed on ice for 10 min in ChD binding buffer, and shaked at 4° C. supplemented with 100 μg/mL lysozyme, 1 mg/mL CHAPS and 1 mM PMSF, for 30 min. Cells were subsequently lysed by sonication (15 W, 30 s on, followed by 30 s off, twice, followed by 20 W for 1 min). The solubilized fraction was collected by centrifugation at 15000 rpm for 40 min at 4° C. Meanwhile, Ni-NTA Agarose resin (QIAGEN, Venlo, Netherlands) was washed with H2O and equilibrated with ChD binding buffer. The soluble fraction was incubated with the prewashed Ni-NTA agarose resin at 4° C. for 2 h. The resin was then washed 3× with ChD purification buffer (20 mM Tris, pH 8, 150 mM NaCl, 0.01% Tween-20, 1 mM PMSF). Proteins were eluted by the addition of 0.5 M imidazole to ChD purification buffer. The elution was diluted with 30% glycerol, flash frozen, and stored at −80° C. until needed. Protein purity was assessed by SDS-PAGE and concentration was determined by the Pierce 660 kit (Thermo Scientific).
Direct fluorescence polarization (FP) binding assay of PSL hits against PcG CBX ChDs. FP assays were conducted as above with slight modifications. Alkyne peptides described above were conjugated with a fluorescein group(5-/6-FAM) through copper catalyzed click reaction as previously described. The FAM-labeled peptide was kept constant at 100 nM. The CBX ChD proteins were titrated by 2-fold series dilutions in the assays. The highest protein concentrations, at which FAM-peptide was completely bound, used for each CBX in the direct binding assays depends on the binding affinity of the peptides. Assays were performed for each peptide in four replicates.
In general terms: Fluorescence polarisation rises when a labelled molecule tumbles more slowly, as on binding a larger partner.

Assay [1] addresses T2, CBX8 binding to chromatin (Homo sapiens, UniProt Q9HC52).
T2 construct: endogenous in cells; host or cells: Hs68 fibroblasts (A16); HEK293T (A19); K562 (A23)
T2 sequence (Q9HC52 1-389): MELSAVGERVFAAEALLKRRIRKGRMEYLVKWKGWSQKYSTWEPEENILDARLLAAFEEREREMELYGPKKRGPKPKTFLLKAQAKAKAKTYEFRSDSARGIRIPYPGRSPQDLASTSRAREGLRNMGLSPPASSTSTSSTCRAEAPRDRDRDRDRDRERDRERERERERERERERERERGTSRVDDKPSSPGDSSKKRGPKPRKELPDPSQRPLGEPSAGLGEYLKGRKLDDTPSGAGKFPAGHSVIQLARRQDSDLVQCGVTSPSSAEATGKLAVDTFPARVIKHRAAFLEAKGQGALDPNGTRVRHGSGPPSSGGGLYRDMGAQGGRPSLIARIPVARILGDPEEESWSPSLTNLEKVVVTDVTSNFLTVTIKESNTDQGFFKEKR
Kind of assay: ChIP-qPCR in Hs68 fibroblast cells. The class given is cell-based. The note with it: 120 μM. As for the experimental part:
ChIP: Hs68 cells were seeded at 4×10^6 in a 10 cm cell culture plates 16 hours prior to treatment. […] ChIP was performed as described in Connelly et al., 2018. Birefly, cells were washed with PBS and fixed on the plate with CiA Fix buffer (50 mM HEPES, pH 8.0, 1 mM EDTA, 0.5 mM ETGA, 100 mM NaCl) and 1% formaldehyde for 10 min at room temperature. Crosslinking was quenched with 0.125 M glycine for 5 min at 4° C. Cells were washed once with PBS and lifted off the plate then resuspended in CiA NP Rinse buffer 1 (50 mM HEPES pH 8.0, 140 mM NaCl, 1 mM EDTA, 10% glycerol, 0.5% NP-40, 0.25% Triton X) for 10 min. Cells were pelleted at 1200×g for 5 min at 4° C. The supernatant was removed, and the cells were resuspended in CiA NP rinse buffer 2 (10 mM Tris pH 8.0, 1 mM EDTA, 0.5 mM EGTA, 200 mM NaCl). Cells were collected by centrifugation, 1200×g for 5 min. Supernatant was removed and the cells were washed twice with shearing buffer (0.1% SDS, 1 mM EDTA, 10 mM Tris HCl, pH 8.0). Cells were resuspended in shearing buffer and sonicated for 7 min with the probe (Branson). Lysate was centrifuged at 21,000×g for 15 min to remove debris. Supernatant was collected and pre-cleared overnight with Protein A/G magnetic beads (Pierce). […]
qPCR: qPCR was performed on the isolated ChIP DNA using SYBR master mix (Thermo) and run on the BioRad CFX thermo cycler. […] Enrichment was determined by percent input. […]

A further assay concerns CBX8 regulated gene. As to the kind of experiment: Gene expression of a CBX8 regulated gene in HEK293T cells. The class given is cell-based, Human. The settings on record: high compound concentrations.
A further assay relates to THP1 cells. The settings on record: 50 μM.

Source text for LNCaP cells: To generate an in vitro model for NED, we cultured the androgen-sensitive prostate cancer cell line LNCaP in charcoal-stripped serum (CSS), which lacks androgens as well as other steroids. […] To verify that LNCaP_NED cells become resistant to AR antagonists, we tested the effects of the AR antagonist enzalutamide (ENZA) on cell proliferation.
Procedure for THP1 cells: Cells were grown for 72 h before trypsinized and counted. Cell suspension was homogenized by gentle pipetting and counted using Countess II (#AMQAF1000, Life Technologies). […] At day 6, 25 percent of cells in each well were split and transferred to new wells to avoid over-confluency, and media was replaced with fresh compounds in new media. The cell viability assay was extended to 12 days, with cell counting and fresh compound replenishment at day 3, 6, 9.
Luminescence was normalized to DMSO-treated groups. The IC50 was calculated using the “log[inhibitor] vs. the normalized response-variable slope” equation in GraphPad Prism 7.

Consider “SW2_152F-B: biotinylated SW2_152F (SEQ ID NO: 29) (PIKS-{PEG4′-biotin}; also: Pro1 alpha-amino modified, Lys3 side chain amino modified)”, for which, in the assay with endogenous CBX proteins, the “enrichment of endogenous CBX proteins by biotinylated ligand, immunoblot” value is “robustly enriched CBX2 and CBX8 with limited enrichment of other paralogs”.

Take `CNC(=O)c1ccc(N2C(=S)N(c3ccc(C#N)c(C(F)(F)F)c3)C(=O)C2(C)C)cc1F` [enzalutamide, reference compound]: in the assay on LNCaP_NED cells, the “LNCaP_NED proliferation with AR antagonist” value is “no further decrease in proliferation”. For the same compound, the “LNCaP proliferation with AR antagonist” value in the assay on LNCaP cells is recorded as “highly decreased proliferation”.

As for `C#CCNC(=O)[C@H](CO)NC(=O)[C@H](CCCCN(CC)CC)NC(=O)[C@@H](NC(=O)[C@@H](NC(=O)[C@H](Cc1ccc(O)c(Cl)c1)NC(=O)c1cc(C)on1)C(C)C)[C@@H](C)CC` [KED97L] ({Isoxazole3carbonyl(5-Me)}-[Tyr(3-Cl)]VI[Lys(Et2)]S-{NH(propargyl)}; C-terminus assumed), on CBX8 ChD, the “selectivity for CBX8 ChD over CBX7 ChD” value came to 20 fold. In addition, the “CBX8 binding at a known target, ChIP-qPCR” value in assay [1] is on record as “completely unaffected”. For the same compound, the “gene expression changes of a CBX8 regulated gene” value in the assay with CBX8 regulated gene is recorded as “only slightly affected”. In the assay on THP1 cells, the THP1 cell viability entry is on record as “only slightly affected”.
